Experimental data as given in patent US20250154686A1, “COMPOUND LIBRARY” (CHUGAI SEIYAKU KABUSHIKI KAISHA, priority 2021, published 2025).

Target: T1, Bcl-2 protein (Recombinant Human Bcl-2 Protein) (Homo sapiens, UniProt P10415)
T1 construct: purchased Novus Biologicals NBP2-34889
Assay: AS-MS evaluation of binding of the Example 4 mixture library (1200 compounds/well) to Bcl-2, ASMS ratio (%)
Conditions: AS-MS, Example 4 mixture library; for ASMS ratio (%) n = 1: Bcl-2, replicate n = 1; for ASMS ratio (%) n = 2: Bcl-2, replicate n = 2
Procedure, shortened: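 Affinity-selection MS: after spin-column size exclusion and organic extraction, LC/MS signals give an ASMS ratio (%), referenced to protein-free samples with and without column treatment. Binding step combined 20 μM human Bcl-2 with the 1200-compound pool at 20 nM per compound, 1 h, 23° C., dark, pH 7.4 Tris-HCl/NaCl/Tween-20/DTT.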

T1 sequence (P10415 whole entry): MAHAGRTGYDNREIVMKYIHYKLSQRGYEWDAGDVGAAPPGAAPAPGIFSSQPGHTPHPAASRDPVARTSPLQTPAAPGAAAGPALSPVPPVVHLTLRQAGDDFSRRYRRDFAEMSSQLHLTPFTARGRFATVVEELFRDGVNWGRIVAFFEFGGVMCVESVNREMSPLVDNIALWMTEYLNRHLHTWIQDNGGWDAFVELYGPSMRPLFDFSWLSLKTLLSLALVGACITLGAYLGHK

Row | Structure (SMILES) | ASMS ratio (%) n = 1 | ASMS ratio (%) n = 2
1 | CCOc1cccc(C#Cc2cncc(C(=O)N3CCN(c4ccc(C(=O)NS(=O)(=O)CCC(F)(F)F)cc4)CC3)c2)c1 [Compound B2N031-01, 4-[4-[5-[2-(3-Ethoxyphenyl)ethynyl]pyridine-3-carbonyl]piperazin-1-yl]-N-(3,3,3-trifluoropropylsulfonyl)benzamide] | 0.0% | 0.0%
2 | CCOc1cncc(C#Cc2cncc(C(=O)N3CCN(c4ccc(C(=O)NS(=O)(=O)CCC(F)(F)F)cc4)CC3)c2)c1 [Compound B2N032-01, 4-[4-[5-[2-(5-Ethoxypyridin-3-yl)ethynyl]pyridine-3-carbonyl]piperazin-1-yl]-N-(3,3,3-trifluoropropylsulfonyl)benzamide] | −0.4% | −1.0%
3 | CCOc1cccc(-c2ccccc2CCC(=O)N2CCN(c3ccc(C(=O)NS(=O)(=O)CCC(F)(F)F)cc3)CC2)c1 [Compound B2N033-01, 4-[4-[3-[2-(3-Ethoxyphenyl)phenyl]propanoyl]piperazin-1-yl]-N-(3,3,3-trifluoropropylsulfonyl)benzamide] | 0.0% | 0.0%
4 | CCOc1cncc(-c2ccccc2CCC(=O)N2CCN(c3ccc(C(=O)NS(=O)(=O)CCC(F)(F)F)cc3)CC2)c1 [Compound B2N034-01, 4-[4-[3-[2-(5-Ethoxypyridin-3-yl)phenyl]propanoyl]piperazin-1-yl]-N-(3,3,3-trifluoropropylsulfonyl)benzamide] | −0.2% | 1.0%
5 | CCOc1cccc(-c2ccc(C(=O)N3CCN(c4ccc(C(=O)NS(=O)(=O)CCC(F)(F)F)cc4)CC3)c3ccccc23)c1 [Compound B2N035-01, 4-[4-[4-(3-Ethoxyphenyl)naphthalene-1-carbonyl]piperazin-1-yl]-N-(3,3,3-trifluoropropylsulfonyl)benzamide] | 0.0% | 0.0%
6 | CCOc1cncc(-c2ccc(C(=O)N3CCN(c4ccc(C(=O)NS(=O)(=O)CCC(F)(F)F)cc4)CC3)c3ccccc23)c1 [Compound B2N036-01, 4-[4-[4-(5-Ethoxypyridin-3-yl)naphthalene-1-carbonyl]piperazin-1-yl]-N-(3,3,3-trifluoropropylsulfonyl)benzamide] | 0.0% | 0.4%
7 | CCOc1cccc(-c2cc(C(=O)N3CCN(c4ccc(C(=O)NS(=O)(=O)CCC(F)(F)F)cc4)CC3)cc(C(C)(C)C)c2)c1 [Compound B2N037-01, 4-[4-[3-tert-Butyl-5-(3-ethoxyphenyl)benzoyl]piperazin-1-yl]-N-(3,3,3-trifluoropropylsulfonyl)benzamide] | 0.0% | 0.0%
8 | CCOc1cncc(-c2cc(C(=O)N3CCN(c4ccc(C(=O)NS(=O)(=O)CCC(F)(F)F)cc4)CC3)cc(C(C)(C)C)c2)c1 [Compound B2N038-01, 4-[4-[3-tert-Butyl-5-(5-ethoxypyridin-3-yl)benzoyl]piperazin-1-yl]-N-(3,3,3-trifluoropropylsulfonyl)benzamide] | 0.0% | 0.0%
9 | CCOc1cncc(-c2cc(C(=O)N3CCN(c4ccc(C(=O)NS(=O)(=O)CCC(F)(F)F)cc4)CC3)cc(C(F)(F)F)c2)c1 [Compound B2N040-01, 4-[4-[3-(5-Ethoxypyridin-3-yl)-5-(trifluoromethyl)benzoyl]piperazin-1-yl]-N-(3,3,3-trifluoropropylsulfonyl)benzamide] | 0.0% | 0.0%
